In paper PMC12495443, “Developing inhibitors of the guanosine triphosphate hydrolysis accelerating activity of Regulator of G protein Signaling-14 [drawing 1]” (The Journal of Biological Chemistry, 2025):
Positions count from the first letter of the chain named. Entries after “also recorded” stand apart in the source; their conditions may differ. Like-named read-outs stand apart in the source and are kept apart here.

Legend:
[1] = biological target: T1, human RGS12 RGS-box (wild-type) (Homo sapiens, UniProt O14924); test: Transcreener GDP RGScreen fluorescence polarization assay of RGS12 RGS-box GAP activity on Gαi1(DM); type: biochemical; conditions: wild-type RGS12 RGS-box GAP activity, Gαi1(DM), read-out: RGS12 pIC50 (converted)
T1 construct: human RGS12 RGS-box (aa 695–843 of UniProt O14924); host or cells: E. coli
T1 sequence (O14924 695-843): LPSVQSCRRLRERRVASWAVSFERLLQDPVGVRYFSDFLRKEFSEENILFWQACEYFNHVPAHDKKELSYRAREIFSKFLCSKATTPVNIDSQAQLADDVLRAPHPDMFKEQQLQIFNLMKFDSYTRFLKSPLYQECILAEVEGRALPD
Excerpt: (§1) We previously described work with BellBrook Labs creating the Transcreener GDP RGScreen fluorescence polarization assay of steady-state GTP hydrolysis, leveraging a double point-mutant in the Gα enzyme to make GTP hydrolysis, rather than GDP (product) release, the rate-limiting step for multiple rounds of GTP conversion ([57], [59]). […] Titrating inputs of the double point-mutant (“DM”) Gαi1 and RGS-box recombinant proteins (Fig. S2, B and C) established a robust, medium-throughput assay for evaluating potential RGS14 and RGS12 inhibitors, with “assay quality” Z′ scores ([60]) above 0.76 for each target (Fig. S2D).
(§2) Reagents and protocols for the fluorescence anisotropy-based Transcreener GDP RGScreen assay using a rate-altered, double point-mutant, recombinant Gαi1 protein have been extensively described previously ([43], [44]); reactions were always performed so that total GTP converted over the time course was consistently less than 10% of reaction maximum input. Specific methods for its application in assessing RGS14 and RGS12 GAP activity are summarized as follows. Open-reading frames (ORFs) encoding wild-type versions of the human RGS14 RGS-box (aa 46–195 of UniProt O43566) and human RGS12 RGS-box (aa 695–843 of UniProt O14924) were each sub-cloned in-frame with an N-terminal hexahistidine (His6) expression tag in the plasmid pET30a, expressed in E. coli cultures, and then purified by nickel-nitriloacetate (Ni-NTA) and size-exclusion (Superdex 200) column chromatographies by GenScript using previously described methods ([35]). These recombinant His6-tag fusion proteins were stored at −80 °C in storage buffer (150 mM NaCl, 50 mM Tris-HCl pH 8.0, 10% glycerol) before thawing and use. Cysteine-less versions were similarly produced by ORF site-directed mutagenesis: for RGS14, codons for cysteine residues 47 and 130 (numbered as in PDB id 2JNU) were replaced with serine codons; for RGS12, codons for cysteines 4, 51, 78, and 134 (numbered in relation to PDB id 2EBZ) were replaced with serine codons. Use of Transcreener GDP-detection reagents to assess compound inhibition of Naegleria fowleri Gα7 protein GTPase activity ([83]) has previously been described ([84]).

[2] = Single-dose pharmacokinetic study, plasma and brain by LC-MS/MS; type: in vivo, male Swiss-Webster mice
Method: Single-dose pharmacokinetic (PK) studies were conducted under IACUC-approved protocols of the UNTSCP Preclinical Services laboratory at the University of North Texas Health Science Center. Male Swiss-Webster (CFW) mice (∼30 g; Charles River) were used in both studies, housed in groups of three per cage with ad libitum access to food and water and acclimated for a minimum of 3 days prior to dosing. Each compound was evaluated in a single-dose, time-course design using three mice per time point across seven collection points (0.25, 0.5, 1, 2, 4, 8, and 24 h post-dose). For Z56944652, mice received a single intraperitoneal (IP) dose of 10 mg/kg (0.2 ml at 1.5 mg/ml). At each designated time point, mice were euthanized via CO2 inhalation, and blood was collected by cardiac puncture for plasma isolation (K2-EDTA tubes). Brains were aseptically removed, flash-frozen, and stored at −80 °C. For Z55628018, due to poor detection in preliminary studies, the protocol was modified to enhance systemic exposure. Mice were pre-dosed orally with 50 mg/kg of the pan-CYP inhibitor 1-aminobenzotriazole (ABT; ref. ([67])) 2 h prior to administration of Z55628018. The compound was then administered via IP injection at a single dose of 30 mg/kg (0.2 ml at […]). Sample collection and processing procedures were identical to those described above for Z56944652.
LC-MS/MS analyses were performed at UNTHSC using an Agilent 1260 Infinity HPLC system coupled to an Agilent 6460 Triple Quadrupole mass spectrometer equipped with Jet Stream electrospray ionization (ESI) in positive ion mode. Separation was carried out on a Poroshell 120 EC-C18 column (50 × 3.0 mm, 2.7 μm particle size) maintained at 30 °C, with a mobile phase consisting of 0.1% formic acid in water (A) and 0.1% formic acid in acetonitrile (B) under a standard gradient elution at a flow rate of 0.5 ml/min. The injection volume was 2 μl. Multiple reaction monitoring (MRM) transitions were optimized for each compound: Z56944652 was detected at m/z 353.1 → 227/132/126, and Z55628018 at m/z 391 → 134.8/247.9/132/121. The internal standard, carbamazepine, was monitored at m/z 237.2 → 167. Plasma samples (30–40 μl) were extracted with 1000 to 1200 μl of either acetonitrile or a 50:50 acetonitrile:methanol mixture containing carbamazepine (150–500 ng/ml), followed by vortexing, sonication, centrifugation, and supernatant collection for injection. Brain samples were homogenized in organic solvent (2 ml per 0.5 g tissue), vortexed, centrifuged, and processed using the same analytical workflow. Matrix-matched calibration curves were prepared using blank plasma or brain extract and validated over appropriate dynamic ranges: 0.09 to 46 μg/ml (plasma) and 0.547 to 70 ng/ml (brain) for Z56944652; 0.1 to 12.5 μg/ml (plasma) and 0.1 to 3.13 ng/ml (brain) for Z55628018. […] Retention times were 5.0 ± 0.01 min for Z56944652 and 3.3 ± 0.01 min for Z55628018, with the internal standard eluting at 4.0 ± 0.02 min.

THP-1 cell line = test: Cytotoxicity assays (CytoTox-Glo, CytoTox 96); type: cell-based; conditions: THP-1 cells, overnight, CytoTox-Glo and CytoTox 96
Method: To evaluate cellular toxicity of active compounds, we employed the immortalized human monocytic THP1-Dual cell line (InvivoGen) in two orthogonal cytotoxicity assays: ATP-dependent luminescence (CytoTox-Glo) and colorimetric lactate dehydrogenase (LDH) release (CytoTox 96). For each assay, compounds were serially diluted 2-fold starting at 250 μM and added to 96-well flat-bottom tissue culture plates (Thermo Scientific Nunc, Cat# 165306). THP1-Dual cells were then seeded at 20,000 to 30,000 cells per well in 100 μl RPMI 1640 media supplemented with 10% fetal bovine serum (Gibco). Plates were gently mixed and incubated overnight at 37 °C in a humidified 5% CO2 incubator. For the CytoTox-Glo assay (Promega, Cat# G9291), 50 μl of assay reagent was added to each well. Plates were mixed briefly, sealed, and incubated at room temperature for 15 min before reading luminescence on a TECAN Infinite M1000 Pro plate reader to quantify dead-cell signal. Subsequently, 50 μl of a digitonin-containing lysis solution was added to each well, followed by a second luminescence read after 15 min to assess total cell content. Percent cytotoxicity was calculated per manufacturer instructions. For the CytoTox 96 Non-Radioactive Cytotoxicity Assay (Promega, Cat# G1780), after overnight compound treatment, LDH release into the culture medium was measured by adding the provided substrate mix. Absorbance was read at 490 or 492 nm within 1 h of adding the stop solution. Assay optimization and data normalization were conducted according to the manufacturer’s technical manual.

[3] = biological target: T2, human RGS14 RGS-box (wild-type) (Homo sapiens, UniProt O43566); test: Transcreener GDP RGScreen fluorescence polarization assay of RGS14 RGS-box GAP activity on Gαi1(DM); type: biochemical; conditions: for Ratio (RGS14 pIC50 / RGS12 pIC50): values > 1.0 reflect RGS14 selectivity; for IC50: Transcreener GDP RGScreen
T2 construct: human RGS14 RGS-box (aa 46–195 of UniProt O43566); host or cells: E. coli
T2 sequence (O43566 46-195): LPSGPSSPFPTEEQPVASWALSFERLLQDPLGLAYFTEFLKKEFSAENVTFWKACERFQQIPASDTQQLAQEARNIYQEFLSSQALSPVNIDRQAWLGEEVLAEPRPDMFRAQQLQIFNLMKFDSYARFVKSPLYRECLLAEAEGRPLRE
Excerpt: as §1, §2

[4] = biological target: T3, cysteine-less RGS14 RGS-box protein (Homo sapiens, UniProt O43566, C100S/C183S); test: Transcreener GDP RGScreen assay with cysteine-less RGS14 RGS-box; type: biochemical; conditions: compared with wild-type RGS14 RGS-box
T3 construct: human RGS14 RGS-box (aa 46–195 of UniProt O43566); host or cells: E. coli
T3 sequence (O43566 46-195 C100S/C183S): T2 sequence (O43566 46-195) with C55S, C138S
Excerpt: Given the earlier experience with screening hit CCG-4986 being a covalent modifier of RGS4 cysteine residues ([35]), we sought to exclude protein-thiol reactivity as a potential mechanism of action of the active compounds derived from the AtomNet virtual screening effort ([55]) and SAR campaign follow-ups. To address this possibility and screen out thiol-reactive hits, cysteine-lacking versions of recombinant proteins spanning the RGS-boxes of RGS14 and RGS12 were purified from E. coli cultures.
Reagents and protocols for the fluorescence anisotropy-based Transcreener GDP RGScreen assay using a rate-altered, double point-mutant, recombinant Gαi1 protein have been extensively described previously ([43], [44]); reactions were always performed so that total GTP converted over the time course was consistently less than 10% of reaction maximum input. Specific methods for its application in assessing RGS14 and RGS12 GAP activity are summarized as follows. Open-reading frames (ORFs) encoding wild-type versions of the human RGS14 RGS-box (aa 46–195 of UniProt O43566) and human RGS12 RGS-box (aa 695–843 of UniProt O14924) were each sub-cloned in-frame with an N-terminal hexahistidine (His6) expression tag in the plasmid pET30a, expressed in E. coli cultures, and then purified by nickel-nitriloacetate (Ni-NTA) and size-exclusion (Superdex 200) column chromatographies by GenScript using previously described methods ([35]). […]
Supplementary Figure S5. […] (A,B) Recombinant, cysteine residue-lacking (“-cys”) RGS14 RGS-box protein (panel A) and cysteine residue-lacking RGS12 RGS-box protein ([…]) were both observed, in a concentration-dependent fashion (indicated in ng/µL by color), to increase steady-state GDP production by 0.5 ng/µL Gai1(DM) protein in a 20 µL final reaction volume, as measured by the Transcreener® GDP-detection RGScreen™ assay and detected by the change in polarization (ΔmP) at each indicated time point (“enz” = Gai1(DM) protein a.k.a. […]

[5] = wild-type RGS14 RGS-box GAP activity, Gαi1(DM), read-out: RGS14 pIC50 (converted)

SMILES	IC50 [1] [µM]	brain tissue concentration ([2]; 30 mg/kg IP after 50 mg/kg oral 1-aminobenzotriazole, any time point)	concentration at 1 h ([2]; male, Swiss-Webster (CFW), mouse, plasma, intraperitoneal, 30 mg/kg IP after 50 mg/kg oral 1-aminobenzotriazole, one of three mice, 1-h time point) [ng/mL]	cytotoxicity (THP-1 cell line)	Ratio (RGS14 pIC50 / RGS12 pIC50) [3]	IC50 [3, 5] [µM]	time of peak brain level ([2]; 10 mg/kg IP single dose, mice) [h]	peak brain level ([2]; 10 mg/kg IP single dose, mice, 1 h post-dose) [ng/g tissue]	peak CNS level (mean ± SD) ([2]; 10 mg/kg IP, three Swiss Webster mice, at 1 h) [ng/gram brain tissue]	Kp ([2]; male, Swiss-Webster (CFW), mouse, brain, 10 mg/kg IP, throughout the measured time course, read-out: brain-to-plasma concentration ratio (Kp))	inhibitory activity on cysteine-free RGS14 RGS-box (in words) [4]	IC50 ([3]; wild-type RGS14 RGS-box, read-out: IC50 against RGS14 RGS-box GAP activity) [µM]
C1=C(c2cc3ccccc3o2)Nn2c(nnc2C2COc3ccccc3O2)S1 (stereo not shown) [Z55628018, 6-(1-benzofuran-2-yl)-3-(2,3-dihydro-1,4-benzodioxin-2-yl)-5H-[1,2,4]triazolo[3,4-b][1,3,4]thiadiazine]	5.75	No measurable concentrations; also recorded: undetectable	170	Neither triazolothiadiazine derivative was observed to induce significant cell death	0.92	14.5						
COc1ccccc1C1=CSc2nnc(COc3ccccc3)n2N1 [Z56944652, 6-(2-methoxyphenyl)-3-(phenoxymethyl)-5H-[1,2,4]triazolo[3,4-b][1,3,4]thiadiazine]	3.39			Neither triazolothiadiazine derivative was observed to induce significant cell death	0.86	19.1	1	~20	19.5 ± 0.3	~1		
CN1C(=O)[C@@]23C[C@]4([C@]56C[C@@]78SS[C@@](CO)(C(=O)N7[C@H]5Nc5ccccc56)N(C)C8=O)c5ccccc5N[C@@H]4N2C(=O)[C@]1(CO)SS3 [chaetocin, reference compound]											largely lost	0.32
